Measurements published in publication PMC4303209, “A novel phosphatidylinositol 3-kinase (PI3K) inhibitor directs a potent FOXO-dependent, p53-independent cell cycle arrest phenotype characterized by the differential induction of a subset of FOXO-regulated genes” (Breast Cancer Research : BCR, 2014).

Test system: MCF-7 breast cancer cells
Test: Microarray gene expression analysis (Agilent whole human genome 4 x 44K; compound vs DMSO, LIMMA log2 fold change)
Assay type: cell-based
[1] = MCF-7, 100nM, six hours, 1.5-fold expression change threshold

## Cn1ncc2c(N3CCOCC3)nc(-c3cccc(O)c3)nc21 [ETP-45658]
Gene 114799, cell cycle genes
  ESCO1 log2FC: 0.560
Gene 115426, cell cycle genes
  UHRF2 log2FC: 0.500
Gene 116138, cell cycle genes
  KLHDC3 log2FC: -0.048
Gene 116840, cell cycle genes
  CNTROB log2FC: -0.102
Gene 121441, cell cycle genes
  NEDD1 log2FC: 0.443
Gene 124790, cell cycle genes
  HEXIM2 log2FC: 0.577
Gene 127829, cell cycle genes
  ARL8A log2FC: 0.446
Gene 127933, cell cycle genes
  UHMK1 log2FC: -0.099
Gene 128239, cell cycle genes
  IQGAP3 log2FC: 0.155
Gene 129401, cell cycle genes
  NUP35 log2FC: -0.169
Gene 129531, cell cycle genes
  MITD1 log2FC: 0.836
Gene 131870, cell cycle genes
  NUDT16 log2FC: -0.327
Gene 132625, cell cycle genes
  ZFP42 log2FC: 0.031
Gene 133746, cell cycle genes
  JMY log2FC: 1.016
Gene 135458, cell cycle genes
  HUS1B log2FC: -0.791
Gene 140609, cell cycle genes
  NEK7 log2FC: 0.053
Gene 140690, cell cycle genes
  CTCFL log2FC: -0.021
Gene 143471, cell cycle genes
  PSMA8 log2FC: 0.068
Gene 143686, cell cycle genes
  SESN3 log2FC: 0.057
Gene 143689, cell cycle genes
  PIWIL4 log2FC: 0.405
Gene 144455, cell cycle genes
  E2F7 log2FC: -0.474
Gene 144715, cell cycle genes
  RAD9B log2FC: 0.061
Gene 147040, cell cycle genes
  KCTD11 log2FC: 0.142
Gene 149628, cell cycle genes
  PYHIN1 log2FC: -0.052
Gene 151242, cell cycle genes
  PPP1R1C log2FC: 0.132
Gene 151246, cell cycle genes
  SGOL2 log2FC: 0.811
Gene 151648, cell cycle genes
  SGOL1 log2FC: 0.489
Gene 152015, cell cycle genes
  ROPN1B log2FC: 0.058
Gene 153090, cell cycle genes
  DAB2IP log2FC: -0.220
Gene 157313, cell cycle genes
  CDCA2 log2FC: 0.547
Gene 157570, cell cycle genes
  ESCO2 log2FC: 0.730
Gene 163786, cell cycle genes
  SASS6 log2FC: 0.483
Gene 164684, cell cycle genes
  WBP2NL log2FC: -0.063
Gene 168451, cell cycle genes
  THAP5 log2FC: 0.256
Gene 201163, cell cycle genes
  FLCN log2FC: 0.968
Gene 201254, cell cycle genes
  STRA13 log2FC: -0.358
Gene 203068, cell cycle genes
  TUBB log2FC: -0.709
Gene 221035, cell cycle genes
  REEP3 log2FC: -0.240
Gene 221477, cell cycle genes
  C6orf89 log2FC: -0.508
Gene 245711, cell cycle genes
  SPDYA log2FC: -0.071
Gene 246184, cell cycle genes
  CDC26 log2FC: -0.688
Gene 259266, cell cycle genes
  ASPM log2FC: 1.100
Gene 283375, cell cycle genes
  SLC39A5 log2FC: -0.022
Gene 283431, cell cycle genes
  GAS2L3 log2FC: 0.617
Gene 286053, cell cycle genes
  NSMCE2 log2FC: 1.151
Gene 286826, cell cycle genes
  LIN9 log2FC: 1.274
Gene 339967, cell cycle genes
  TMPRSS11A log2FC: 0.046
Gene 348995, cell cycle genes
  NUP43 log2FC: 0.749
Gene 378708, cell cycle genes
  APITD1 log2FC: 0.144
Gene 387893, cell cycle genes
  SETD8 log2FC: 0.093
Gene 415116, cell cycle genes
  PIM3 log2FC: 0.693
Gene 440822, cell cycle genes
  PIWIL3 log2FC: -0.066
MCF-7
  expression of FOXO-dependent apoptosis genes including TNFSF10, BCL211 and FASLG (array): did not significantly change
[1]
  number of induced (upregulated) genes: 1,549
  number of repressed (downregulated) genes: 989
MCF-7, FOXO target genes
  CCND1, SPRY2 and MMP9 expression (array): significantly downregulated
  expression of CCNG2, KLHL24, DDIT3, CITED2 and RICTOR (array): significantly upregulated
MCF-7, upregulated genes
  bound FOXO sites (transcription factor enrichment analysis): highly significant increase
Cell cycle genes
  MAD1L1 log2FC: -0.032
Gene ACSL5 (51703), apoptosis genes
  ACSL5 log2FC: 0.011
Gene ACTR1A (Gene 10121), cell cycle genes
  log2FC: -0.180
Gene ADAMTS20 (80070), apoptosis genes
  ADAMTS20 log2FC: 0.014
Gene ADIPOQ (9370), apoptosis genes
  ADIPOQ log2FC: 0.013
Gene ADRA1A (148), apoptosis genes
  ADRA1A log2FC: 0.060
Gene AGTR2 (186), apoptosis genes
  AGTR2 log2FC: 0.004
Gene AKAP8 (Gene 10270), cell cycle genes
  log2FC AKAP8: -0.037
Gene ALB (213), apoptosis genes
  ALB log2FC: -0.050
Gene ALOX12 (239), apoptosis genes
  ALOX12 log2FC: 0.083
Gene ALX3 (257), apoptosis genes
  ALX3 log2FC: -0.018
Gene ALX4 (60529), apoptosis genes
  ALX4 log2FC: -0.043
Gene ANAPC13 (Gene 25847), cell cycle genes
  log2FC: -0.342
Gene ANKRD13C (81573), apoptosis genes
  ANKRD13C log2FC: 0.077
Gene APBB1 (322), apoptosis genes
  APBB1 log2FC: 0.078
Gene APOH (350), apoptosis genes
  APOH log2FC: -0.009
Gene AQP1 (358), apoptosis genes
  AQP1 log2FC: -0.015
Gene ARHGAP10 (79658), apoptosis genes
  ARHGAP10 log2FC: -0.010
Gene ARHGEF6 (9459), apoptosis genes
  ARHGEF6 log2FC: -0.041
Gene ARHGEF16 (27237), apoptosis genes
  ARHGEF16 log2FC: 0.078
Gene ARHGEF18 (23370), apoptosis genes
  ARHGEF18 log2FC: -0.051
Gene ATOH1 (474), apoptosis genes
  ATOH1 log2FC: -0.034
Gene ATPIF1 (93974), apoptosis genes
  ATPIF1 log2FC: 0.069
Gene ATR (Gene 545), cell cycle genes
  log2FC: 0.346
Gene BAD (Gene 572), cell cycle genes
  log2FC: 0.276
Gene BCL2L10 (10017), apoptosis genes
  BCL2L10 log2FC: -0.024
Gene BDKRB2 (624), apoptosis genes
  BDKRB2 log2FC: 0.060
Gene BIRC2 (329), apoptosis genes
  BIRC2 log2FC: 0.082
Gene BIRC8 (112401), apoptosis genes
  BIRC8 log2FC: -0.014
Gene BMP2 (650), apoptosis genes
  BMP2 log2FC: -0.038
Gene BMP4 (Gene 652), cell cycle genes
  log2FC: 0.407
Gene BMP5 (653), apoptosis genes
  BMP5 log2FC: 0.022
Gene BOK (666), apoptosis genes
  BOK log2FC: -0.021
Gene BRE (Gene 9577), cell cycle genes
  log2FC: -0.322
Gene BTK (695), apoptosis genes
  BTK log2FC: -0.064
Gene BUB1B (Gene 701), cell cycle genes
  log2FC: 0.344
Gene C1QBP (708), apoptosis genes
  C1QBP log2FC: 0.052
Gene C3orf38 (285237), apoptosis genes
  C3orf38 log2FC: -0.027
Gene CAMK2B (Gene 816), cell cycle genes
  log2FC: -0.123
Gene CAPN3 (825), apoptosis genes
  CAPN3 log2FC: 0.007
Gene CAPN3 (Gene 825), cell cycle genes
  log2FC CAPN3: 0.007
Gene CARD9 (64170), apoptosis genes
  CARD9 log2FC: -0.027
Gene CARD14 (79092), apoptosis genes
  CARD14 log2FC: 0.026
Gene CASP3 (Gene 836), cell cycle genes
  log2FC: 0.546
Gene CASP10 (843), apoptosis genes
  CASP10 log2FC: -0.013
Gene CASP12 (120329), apoptosis genes
  CASP12 log2FC: 0.004
Gene CCK (885), apoptosis genes
  CCK log2FC: -0.026
Gene CCL19 (6363), apoptosis genes
  CCL19 log2FC: -0.021
Gene CCNB2 (Gene 9133), cell cycle genes
  log2FC: 0.253
Gene CCNH (Gene 902), cell cycle genes
  log2FC: 0.426
Gene CCNT2 (Gene 905), cell cycle genes
  log2FC: 0.221
Gene CD38 (952), apoptosis genes
  CD38 log2FC: -0.014
Gene CD40LG (959), apoptosis genes
  CD40LG log2FC: -0.031
Gene CD248 (57124), apoptosis genes
  CD248 log2FC: -0.012
Gene CDC73 (Gene 79577), cell cycle genes
  log2FC: 0.443
Gene CDH1 (999), apoptosis genes
  CDH1 log2FC: 0.047
Gene CDH13 (Gene 1012), cell cycle genes
  log2FC CDH13: -0.017
Gene CDK2AP1 (Gene 8099), cell cycle genes
  log2FC CDK2AP1: -0.041
Gene CDK5 (1020), apoptosis genes
  CDK5 log2FC: -0.089
Gene CDK5RAP1 (Gene 51654), cell cycle genes
  log2FC CDK5RAP1: 0.018
Gene CDKN2B (Gene 1030), cell cycle genes
  log2FC CDKN2B: 0.013
Gene CENPJ (Gene 55835), cell cycle genes
  log2FC: 0.293
Gene CENPK (Gene 64105), cell cycle genes
  log2FC: 0.519
Gene CETN3 (Gene 1070), cell cycle genes
  log2FC: 0.369
Gene CHEK2 (Gene 11200), cell cycle genes
  log2FC: 0.312
Gene CHIA (27159), apoptosis genes
  CHIA log2FC: -0.023
Gene CIDEA (1149), apoptosis genes
  CIDEA log2FC: -0.026
Gene CLC (1178), apoptosis genes
  CLC log2FC: -0.009
Gene CLEC5A (23601), apoptosis genes
  CLEC5A log2FC: -0.012
Gene CLSPN (63967), apoptosis genes
  CLSPN log2FC: 0.066
Gene CNTFR (1271), apoptosis genes
  CNTFR log2FC: -0.014
Gene COL2A1 (1280), apoptosis genes
  COL2A1 log2FC: 0.036
Gene COL4A3 (1285), apoptosis genes
  COL4A3 log2FC: 0.173
Gene COMP (1311), apoptosis genes
  COMP log2FC: -0.018
Gene COPS5 (Gene 10987), cell cycle genes
  log2FC: 0.503
Gene CRLF3 (Gene 51379), cell cycle genes
  log2FC: 0.438
Gene CSNK2B (Gene 1460), cell cycle genes
  log2FC: -0.263
Gene CST3 (1471), apoptosis genes
  CST3 log2FC: -0.001
Gene CTLA4 (1493), apoptosis genes
  CTLA4 log2FC: -0.015
Gene CXCR4 (7852), apoptosis genes
  CXCR4 log2FC: -0.044
Gene CYR61 (3491), apoptosis genes
  CYR61 log2FC: -0.093
Gene DAPK2 (23604), apoptosis genes
  DAPK2 log2FC: 0.127
Gene DAXX (1616), apoptosis genes
  DAXX log2FC: 0.003
Gene DAXX (Gene 1616), cell cycle genes
  log2FC DAXX: 0.003
Gene DCLRE1B (Gene 64858), cell cycle genes
  log2FC: -0.240
Gene DDX11 (Gene 1663), cell cycle genes
  log2FC: -0.382
Gene DDX47 (51202), apoptosis genes
  DDX47 log2FC: 0.072
Gene DEDD2 (162989), apoptosis genes
  DEDD2 log2FC: 0.036
Gene DFFB (1677), apoptosis genes
  DFFB log2FC: -0.039
Gene DIAPH2 (Gene 1730), cell cycle genes
  log2FC: 0.484
Gene DIRAS3 (Gene 9077), cell cycle genes
  log2FC DIRAS3: 0.0064
Gene DMPK (1760), apoptosis genes
  DMPK log2FC: -0.105
Gene DNM2 (1785), apoptosis genes
  DNM2 log2FC: -0.047
Gene DPF1 (8193), apoptosis genes
  DPF1 log2FC: -0.079
Gene ECD (Gene 11319), cell cycle genes
  log2FC ECD: -0.009
Gene EGR3 (1960), apoptosis genes
  EGR3 log2FC: -0.131
Gene EGR4 (1961), apoptosis genes
  EGR4 log2FC: -0.00345
Gene ELMO1 (9844), apoptosis genes
  ELMO1 log2FC: 0.077
Gene EPB41L3 (23136), apoptosis genes
  EPB41L3 log2FC: -0.033
